Measured values taken from patent US9056874B2, “Complement pathway modulators and uses thereof” (NOVARTIS AG, priority 2012, dated 2015).

What follows are molecules tested against factor B (Homo sapiens, UniProt P00751) (assay: factor B inhibition assay of Biological Example 1). Conditions: IC50 (nM), assay of Biological Example 1 (Table 1).
Chain of factor B (P00751 260-764 limits assumed): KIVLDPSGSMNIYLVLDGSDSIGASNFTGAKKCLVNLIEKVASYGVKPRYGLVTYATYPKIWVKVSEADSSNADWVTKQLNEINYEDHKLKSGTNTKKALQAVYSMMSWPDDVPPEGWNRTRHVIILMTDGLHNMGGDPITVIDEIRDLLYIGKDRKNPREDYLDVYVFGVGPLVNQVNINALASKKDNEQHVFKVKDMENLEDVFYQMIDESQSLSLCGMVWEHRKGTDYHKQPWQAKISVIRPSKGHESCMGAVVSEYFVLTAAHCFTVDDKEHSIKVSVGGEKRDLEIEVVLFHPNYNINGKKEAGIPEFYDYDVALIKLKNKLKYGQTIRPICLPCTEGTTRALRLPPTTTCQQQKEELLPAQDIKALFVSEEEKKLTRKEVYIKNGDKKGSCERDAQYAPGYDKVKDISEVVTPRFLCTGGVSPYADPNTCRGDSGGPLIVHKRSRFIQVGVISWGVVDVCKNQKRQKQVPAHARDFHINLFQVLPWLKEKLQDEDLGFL
Chain of factor B (Q91132 23-649 partner limits assumed): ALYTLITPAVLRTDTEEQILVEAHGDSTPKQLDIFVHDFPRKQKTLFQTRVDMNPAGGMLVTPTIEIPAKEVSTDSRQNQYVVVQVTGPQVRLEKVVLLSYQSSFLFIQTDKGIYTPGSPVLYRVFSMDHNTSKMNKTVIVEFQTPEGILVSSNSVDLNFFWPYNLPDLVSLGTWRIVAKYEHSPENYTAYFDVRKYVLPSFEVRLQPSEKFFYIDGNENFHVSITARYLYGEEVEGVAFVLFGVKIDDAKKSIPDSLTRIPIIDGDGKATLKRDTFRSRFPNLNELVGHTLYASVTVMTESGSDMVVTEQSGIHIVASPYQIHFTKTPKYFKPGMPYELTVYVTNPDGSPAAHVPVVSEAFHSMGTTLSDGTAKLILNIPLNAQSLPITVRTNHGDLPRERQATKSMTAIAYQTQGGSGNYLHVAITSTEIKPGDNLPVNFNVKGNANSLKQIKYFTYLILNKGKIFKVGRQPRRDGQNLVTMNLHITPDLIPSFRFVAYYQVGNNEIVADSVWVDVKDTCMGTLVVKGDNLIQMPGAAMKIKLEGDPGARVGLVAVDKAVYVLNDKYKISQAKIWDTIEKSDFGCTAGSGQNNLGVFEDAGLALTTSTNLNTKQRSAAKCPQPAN
Chain of factor B (Q91132 733-984 partner limits assumed): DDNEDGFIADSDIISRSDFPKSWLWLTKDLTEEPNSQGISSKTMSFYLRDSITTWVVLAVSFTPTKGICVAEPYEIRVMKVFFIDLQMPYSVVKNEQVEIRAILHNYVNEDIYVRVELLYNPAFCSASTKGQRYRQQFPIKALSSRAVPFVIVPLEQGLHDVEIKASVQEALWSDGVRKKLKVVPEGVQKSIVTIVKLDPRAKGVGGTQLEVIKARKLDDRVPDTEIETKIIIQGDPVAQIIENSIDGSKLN
Chain of factor B (Q91132 1264-1642 partner limits assumed): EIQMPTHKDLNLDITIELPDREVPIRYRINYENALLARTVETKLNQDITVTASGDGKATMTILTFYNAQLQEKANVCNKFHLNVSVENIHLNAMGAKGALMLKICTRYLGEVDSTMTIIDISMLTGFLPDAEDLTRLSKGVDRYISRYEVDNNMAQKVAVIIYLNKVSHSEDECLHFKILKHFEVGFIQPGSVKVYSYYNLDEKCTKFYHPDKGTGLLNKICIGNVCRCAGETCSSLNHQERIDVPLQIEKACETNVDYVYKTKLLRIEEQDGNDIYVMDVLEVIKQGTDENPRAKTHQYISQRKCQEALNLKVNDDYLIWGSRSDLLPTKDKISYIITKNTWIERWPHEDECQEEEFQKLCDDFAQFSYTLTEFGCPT
Assay type: biochemical
Set-up: CVF-Bb complex prepared from purified cobra venom factor (1 μM), recombinant human complement factor B; made in house; host or cells: drosophila cells (factor B); E. coli (factor D used to form the complex)
CNC(c1nc2cc(C#N)ccc2[nH]1)(c1c(Br)cc(C)c2[nH]ccc12)C(F)(F)F (single isomer, unassigned; (+)) [106 b) (+), (+)-2-(1-(5-bromo-7-methyl-1H-indol-4-yl)-2,2,2-trifluoro-1-(methylamino)ethyl)-1H-benzo[d]imidazole-5-carbonitrile] showed an IC50 of 150 nM. For COc1cc(C)c2[nH]ccc2c1C(O)c1nc2cc(C#N)ccc2[nH]1 (single isomer, unassigned; (+)) [24-B b) (+), (+)-2-(hydroxy(5-methoxy-7-methyl-1H-indol-4-yl)methyl)-1H-benzo[d]imidazole-5-carbonitrile], the IC50 was 370 nM. Cc1cc2c(c3cc[nH]c13)C(c1nc3cc(C#N)ccc3[nH]1)(C(F)(F)F)OC2=O (racemic) [Example 81-D, (±)-2-(5-Methyl-3-oxo-1-(trifluoromethyl)-3,6-dihydro-1H-furo[3,4-e]indol-1-yl)-1H-benzo[d]imidazole-5-carbonitrile] showed an IC50 of 2930 nM. Cc1cc(OC(F)F)c(C(C)(O)c2nc3cc(C#N)ccc3[nH]2)c2cc[nH]c12 (racemic) [6-B b) (+), (+)-2-(1-(5-(difluoromethoxy)-7-methyl-1H-indol-4-yl)-1-hydroxyethyl)-1H-benzo[d]imidazole-5-carbonitrile] was tested, and the IC50 was 140 nM. Cc1cc(Cl)c(Cc2nc3cc(C#N)ccc3[nH]2)c2cc[nH]c12 [Example 63-B] gave an IC50 of 260 nM. In the case of C=C(c1nc2cc(C#N)ccc2[nH]1)c1c(CC)cc(C)c2[nH]ccc12 [Example 114-C, 2-(1-(5-Ethyl-7-methyl-1H-indol-4-yl)vinyl)-1H-benzo[d]imidazole-5-carbonitrile], the IC50 is reported as 70 nM. COc1cc(C)c2[nH]ccc2c1C(C)(O)c1nc2cc(C#N)ccc2[nH]1 (racemic) [26-C b) (+), (+)-2-(1-hydroxy-1-(5-methoxy-7-methyl-1H-indol-4-yl)ethyl)-1H-benzo[d]imidazole-5-carbonitrile] gave an IC50 of 50 nM. Cc1cc(OC(F)F)c(C(O)c2nc3cc(C#N)ccc3[nH]2)c2cc[nH]c12 (single isomer, unassigned; (+)) [3-B b) (+), (+)-2-((5-(difluoromethoxy)-7-methyl-1H-indol-4-yl)(hydroxy)methyl)-1H-benzo[d]imidazole-5-carbonitrile] was tested, and the IC50 was 820 nM. For Cc1cc(Br)c(C(N)(c2nc3cc(C#N)ccc3[nH]2)C(F)(F)F)c2cc[nH]c12 (single isomer, unassigned; (-)) [105-B b) (−), (−)-2-(1-amino-1-(5-bromo-7-methyl-1H-indol-4-yl)-2,2,2-trifluoroethyl)-1H-benzo[d]imidazole-5-carbonitrile], the IC50 was 20 nM. In the case of Cc1cc(C)c2[nH]ccc2c1C(C)(O)c1nc2cc(C#N)ccc2[nH]1 (single isomer, unassigned; (+)) [76-B b) (+), (+)-2-(1-(5,7-Dimethyl-1H-indol-4-yl)-1-hydroxyethyl)-1H-benzo[d]imidazole-5-carbonitrile], the IC50 is reported as 290 nM. With COc1cc(C)c2[nH]cc(Cl)c2c1C(C)(O)c1nc2cc(C#N)ccc2[nH]1 (single isomer, unassigned) [Example 29-A, (−) or (+)-2-(1-(3-Chloro-5-methoxy-7-methyl-1H-indol-4-yl)-1-hydroxyethyl)-1H-benzo[d]imidazole-5-carbonitrile] the IC50 was 2030 nM. In the case of Cc1cc(C)c2[nH]ccc2c1C(O)c1nc2c(C)c(C#N)ccc2[nH]1 (single isomer, unassigned; (+)) [67-G b) (+), (+)-2-((5,7-dimethyl-1H-indol-4-yl)(hydroxy)methyl)-4-methyl-1H-benzo[d]imidazole-5-carbonitrile], the IC50 is reported as 2980 nM. For COc1cc(C)c2[nH]ccc2c1C(OCC(=O)O)(c1nc2cc(C#N)ccc2[nH]1)C(F)(F)F (single isomer, unassigned; (+)) [35-C (+), (+)-2-(1-(5-cyano-1H-benzo[d]imidazol-2-yl)-2,2,2-trifluoro-1-(5-methoxy-7-methyl-1H-indol-4-yl)ethoxy)acetic acid], the IC50 was 4870 nM. Molecule COC(c1nc2cc(C#N)ccc2[nH]1)c1c(CC(C)C)cc(C)c2[nH]ccc12 (single isomer, unassigned; (+)) [71 b) (+), (+)-2-((5-isobutyl-7-methyl-1H-indol-4-yl)(methoxy)methyl)-1H-benzo[d]imidazole-5-carbonitrile] has an IC50 of 4550 nM. Work on CCc1cc(C)c2[nH]ccc2c1C(OC)c1nc2cc(C#N)ccc2[nH]1 (single isomer, unassigned; (-)) [70-D b) (−), (−)-2-((5-ethyl-7-methyl-1H-indol-4-yl)(methoxy)methyl)-1H-benzo[d]imidazole-5-carbonitrile] yielded an IC50 of 480 nM. Cc1cc(C)c2[nH]ccc2c1Cc1nc2c(C)c(C#N)ccc2[nH]1 [Example 63-E] gave an IC50 of 320 nM. Cc1cc(Br)c(C(C)(O)c2nc3cc(C#N)ccc3[nH]2)c2cc[nH]c12 (single isomer, unassigned) [79-F b) (tr = 2.2 min), (+) or (−)-2-(1-(5-bromo-7-methyl-1H-indol-4-yl)-1-hydroxyethyl)-1H-benzo[d]imidazole-5-carbonitrile] gave an IC50 of 60 nM. Molecule Cc1cc(OC(C)C)c(C(C)(O)c2nc3cc(C#N)ccc3[nH]2)c2cc[nH]c12 (single isomer, unassigned; (-)) [26-E b) (−), (−)-2-(1-hydroxy-1-(5-isopropoxy-7-methyl-1H-indol-4-yl)ethyl)-1H-benzo[d]imidazole-5-carbonitrile] has an IC50 of 170 nM. Work on CCc1cc(C)c2[nH]cc(C#N)c2c1C(OC)c1nc2cc(C#N)ccc2[nH]1 (single isomer, unassigned; (-)) [Example 91, (−)-2-((3-Cyano-5-ethyl-7-methyl-1H-indol-4-yl)(methoxy)methyl)-1H-benzo[d]imidazole-5-carbonitrile] yielded an IC50 of 420 nM. Molecule CNC(c1nc2cc(C#N)ccc2[nH]1)(c1c(C2CC2)cc(C)c2[nH]ccc12)C(F)(F)F (single isomer, unassigned; (-)) [107-E b) (−), (−)-2-(1-(5-cyclopropyl-7-methyl-1H-indol-4-yl)-2,2,2-trifluoro-1-(methylamino)ethyl)-1H-benzo[d]imidazole-5-carbonitrile] has an IC50 of 3 nM. Molecule CNC(c1nc2cc(C#N)ccc2[nH]1)(c1c(C2CC2)cc(C)c2[nH]ccc12)C(F)(F)F (single isomer, unassigned; (+)) [107-E b) (+), (+)-2-(1-(5-cyclopropyl-7-methyl-1H-indol-4-yl)-2,2,2-trifluoro-1-(methylamino)ethyl)-1H-benzo[d]imidazole-5-carbonitrile] has an IC50 of 240 nM. In the case of COc1cc(C)c2[nH]cc(Cl)c2c1C(O)c1nc2cc(C#N)ccc2[nH]1 (single isomer, unassigned; (+)) [28-C b) (+), (+)-2-((3-chloro-5-methoxy-7-methyl-1H-indol-4-yl)(hydroxy)methyl)-1H-benzo[d]imidazole-5-carbonitrile], the IC50 is reported as 53900 nM. Molecule Cc1cc(OC(C)C)c(C(O)(c2nc3cc(C#N)ccc3[nH]2)C(F)(F)F)c2cc[nH]c12 (stereo not shown) [Example 33-D] has an IC50 of 310 nM. Molecule Cc1cc(C)c2[nH]ccc2c1C(O)(c1nc2cc(C#N)ccc2[nH]1)C1CC1 (stereo not shown) [79-H a)] has an IC50 of 110 nM. Cc1cc(CO)c(Cc2nc3cc(C#N)ccc3[nH]2)c2cc[nH]c12 [Example 59-C, 2-((5-(Hydroxymethyl)-7-methyl-1H-indol-4-yl)methyl)-1H-benzo[d]imidazole-5-carbonitrile] was tested, and the IC50 was 1760 nM. COc1cc(C)c2c(c1C(C)(OC)c1nc3cc(C#N)ccc3[nH]1)CCN2 (single isomer, unassigned; (-)) [124 b) (−), (−)-2-(1-methoxy-1-(5-methoxy-7-methylindolin-4-yl)ethyl)-1H-benzo[d]imidazole-5-carbonitrile] was tested, and the IC50 was 11 nM. CCOc1cc(C)c2[nH]ccc2c1C(O)(c1nc2cc(C#N)ccc2[nH]1)C(F)(F)F (single isomer, unassigned) [33-C b) (tr = 5.1 min), 2-(1-(5-ethoxy-7-methyl-1H-indol-4-yl)-2,2,2-trifluoro-1-hydroxyethyl)-1H-benzo[d]imidazole-5-carbonitrile] showed an IC50 of 5380 nM. For Cc1cc(CC(C)C)c(C(O)c2nc3cc(C#N)ccc3[nH]2)c2cc[nH]c12 (single isomer, unassigned; (+)) [67-C b) (+), (+)-2-(hydroxy(5-(isobutyl)-7-methyl-1H-indol-4-yl)methyl)-1H-benzo[d]imidazole-5-carbonitrile], the IC50 was 8770 nM. Work on Cc1cc(C)c2[nH]cc(C)c2c1C(O)c1nc2cc(C#N)ccc2[nH]1 (racemic) [Example 89-D, (±)-2-(Hydroxy(3,5,7-trimethyl-1H-indol-4-yl)methyl)-1H-benzo[d]imidazole-5-carbonitrile] yielded an IC50 of 2320 nM. In the case of COc1cc(C)c2c(c1C(C)(OC)c1nc3cc(C#N)ccc3[nH]1)CCN2 (single isomer, unassigned; (+)) [124 b) (+), (+)-2-(1-methoxy-1-(5-methoxy-7-methylindolin-4-yl)ethyl)-1H-benzo[d]imidazole-5-carbonitrile], the IC50 is reported as 490 nM. COCCOc1cc(C)c2[nH]ccc2c1Cc1nc2cc(C#N)ccc2[nH]1 [Example 20-F] showed an IC50 of 5570 nM. Molecule COc1cc(C)c2[nH]ccc2c1C(O)c1cc2cc(C#N)ccc2[nH]1 (racemic) [Example 136, (±)-2-(hydroxy(5-methoxy-7-methyl-1H-indol-4-yl)methyl)-1H-indole-5-carbonitrile] has an IC50 of 20 nM. With Cc1cc(OC(F)F)c(C(C)(O)c2nc3cc(C#N)ccc3[nH]2)c2c(Cl)c[nH]c12 (single isomer, unassigned) [Example 7, (+) or (−)-2-(1-(3-chloro-5-(difluoromethoxy)-7-methyl-1H-indol-4-yl)-1-hydroxyethyl)-1H-benzo[d]imidazole-5-carbonitrile] the IC50 was 4240 nM. Molecule Cc1cc(C(C)C)c(C(N)c2nc3cc(C#N)ccc3[nH]2)c2cc[nH]c12 (single isomer, unassigned) [97 b) (tr = 19.4 min), (−) or (+)-2-(amino(5-isopropyl-7-methyl-1H-indol-4-yl)methyl)-1H-benzo[d]imidazole-5-carbonitrile] has an IC50 of 70 nM.
